Here are results for 10 compounds from PubChem BioAssay (NCI).

Common to all, as to assay: inhibition of tumour cell growth, NCI panel, 48 h
The subject of assay [1] is MCF7 breast.
For assay [2], the system named is K-562 leukemia.
Assay [3] has as its system SNB-75 CNS.
For assay [4], the system named is SK-OV-3 ovarian.
The subject of assay [5] is CAKI-1 renal.
For assay [6], the system named is SK-MEL-5 melanoma.
Assay [7] has as its system MOLT-4 leukemia.
In assay [8] the test system is NCI-H226 lung.

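A five-concentration, 48-hour dose response in 96-well plates underlies each endpoint, interpolated linearly between surrounding concentrations. Here, GI50 denotes the concentration required for 50% inhibition of growth. TGI: concentration producing complete growth inhibition.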 Some results are limits rather than exact numbers.

In the case of `O=C1C(=Cc2ccccc2[N+](=O)[O-])N=C(c2ccccc2)N1n1c(-c2ccccc2)nc2ccccc2c1=O`, the TGI is 52.4 µM in assay [1]; more than 100 µM in assay [2]; more than 100 µM in assay [3]; more than 100 µM in assay [4]; more than 100 µM in assay [5]; more than 100 µM in assay [6]. Also, the results for the TGI in assay [7] and in assay [8] were 70.4 µM and 85.3 µM, respectively.

In the case of `CCN(CC)CCOc1nc2cc(OC)c(OC)cc2c2c1-c1ccc(OC)cc1C2=O`, the GI50 was 0.697 µM in assay [1]; 2.06 µM in assay [2]; 16.8 µM in assay [3]; 13.2 µM in assay [4]; 10.3 µM in assay [5]; 16.1 µM in assay [6]. Moreover, the GI50 in assay [7] is 1.91 µM; in assay [8], 13.6 µM. Moreover, the TGI in assay [1] came out at 17.3 µM; in assay [2], 5.01 µM; in assay [3], 33.1 µM; in assay [4], 26 µM; in assay [5], 22.5 µM; in assay [6], 30.2 µM. Besides, the figures for the TGI in assay [7] and in assay [8] were 17.6 µM and 35.1 µM, respectively.

Consider `O=S1(=O)CC(Br)C(Br)C1` (stereo not drawn), for which the GI50 is 2.72 µM in assay [1]; 3.79 µM in assay [2]; 5.25 µM in assay [3]; 23.2 µM in assay [4]; 3.12 µM in assay [5]; 2.3 µM in assay [6]. The GI50 in assay [7] was 3.27 µM; in assay [8] it was 1.49 µM. The TGI in assay [1] was 11.7 µM; in assay [2] it was 14.2 µM; in assay [3] it was 19.1 µM; in assay [4], 90 µM; in assay [5], 11.8 µM; in assay [6] it was 10.3 µM. Also, the TGI in assay [7] came to 16.2 µM; in assay [8], 11.2 µM.

Consider `Cc1nn2c(/C=C3\C(=O)Nc4ccccc43)c(C)nc2s1`, for which the GI50 was 7.46 µM in assay [1]; 6.71 µM in assay [2]; 53.7 µM in assay [3]; 34.8 µM in assay [4]; more than 100 µM in assay [5]; 16.5 µM in assay [6]. In addition, the GI50 was 17.5 µM in assay [7] and more than 100 µM in assay [8]. Besides, the TGI in assay [1], in assay [2], in assay [3], in assay [4], in assay [5] and in assay [6] was more than 100 µM throughout. In addition, the TGI in assay [7] and in assay [8] was more than 100 µM in each case.

On to `N=C1C(c2nc(-c3ccc(Br)cc3)cs2)=C(O)CN1CC1CCCO1` (stereo not drawn), for which the GI50 was more than 100 µM in assay [1]; more than 100 µM in assay [2]; 7.13 µM in assay [3]; more than 100 µM in assay [4]; more than 100 µM in assay [5]; more than 100 µM in assay [6]. Further, the GI50 in assay [7] and in assay [8] was more than 100 µM throughout. Further, the TGI in assay [1], in assay [2], in assay [3], in assay [4], in assay [5] and in assay [6] was more than 100 µM each time. For the same compound, the TGI in assay [7] and in assay [8] was more than 100 µM each time.

Consider `CCC1OC(/C(C)=C/C(C)/C=C/C2C(C)C2/C=C/C2OC(CC(=O)O)CC(O)C2O)CC=C1C` (stereo not drawn), for which the GI50 in assay [1], in assay [2], in assay [3], in assay [4], in assay [5] and in assay [6] was more than 50 µM throughout. Besides, the GI50 in assay [7] and in assay [8] was more than 50 µM in each case. Further, the TGI in assay [1], in assay [2], in assay [3], in assay [4], in assay [5] and in assay [6] was more than 50 µM in each case. Moreover, the TGI in assay [7] and in assay [8] was more than 50 µM each time.

Regarding `S=C(Nc1ccccc1)N1CCn2c1nsc2=Nc1ccccc1`, the GI50 in assay [1] was more than 100 µM; in assay [2], 31.3 µM; in assay [3], 66.5 µM; in assay [4] it was more than 100 µM; in assay [5] it was more than 100 µM; in assay [6] it was 37.8 µM. Moreover, the figures for the GI50 in assay [7] and in assay [8] were 56.5 µM and 61.6 µM, respectively. For the same compound, the TGI in assay [1], in assay [2], in assay [3], in assay [4], in assay [5] and in assay [6] was more than 100 µM each time. In addition, the TGI in assay [7] and in assay [8] was more than 100 µM in each case.

On to `COc1cc(/C=C\c2cc(OC)c(OC)c(OC)c2)cc(NS(=O)(=O)c2cccc(Cl)c2)c1OC`, for which the GI50 was 0.0533 µM in assay [1]; 0.0383 µM in assay [2]; 0.0298 µM in assay [3]; 1.15 µM in assay [4]; 0.0527 µM in assay [5]; 0.229 µM in assay [6]. The GI50 in assay [7] is 0.0456 µM; in assay [8], 0.311 µM. The TGI is more than 100 µM in assay [1]; more than 100 µM in assay [2]; more than 100 µM in assay [3]; more than 100 µM in assay [4]; 27.8 µM in assay [5]; 0.519 µM in assay [6]. In addition, the TGI in assay [7] and in assay [8] was more than 100 µM each time.

Take `S=c1[nH]nc(SCc2ccccc2Cl)c2[nH]cnc12`: the TGI in assay [1], in assay [2], in assay [3], in assay [4], in assay [5] and in assay [6] was more than 100 µM each time. For the same compound, the TGI in assay [7] and in assay [8] was more than 100 µM throughout.

For `CN1N=Nc2c(C(F)(F)F)nn(-c3ccccc3)c2N(C)C1=O`, the GI50 in assay [1] is more than 100 µM; in assay [2], more than 56.4 µM; in assay [3], more than 100 µM; in assay [4], more than 100 µM; in assay [5], more than 100 µM; in assay [6], more than 100 µM. Further, the GI50 in assay [8] is more than 100 µM. Besides, the TGI in assay [1], in assay [2], in assay [3], in assay [4], in assay [5] and in assay [6] was more than 100 µM in each case. The TGI was more than 45.3 µM in assay [7] and more than 100 µM in assay [8].
